Patent US7915304B2, “Phenyl substituted maleimides as medicaments for blocking degenerative tissue damages by inhibiting MPT” (Congenia S.r.l., priority 2006, dated 2011)

Tests used:
[1] = test system: permeability transition pore (PTP); assay: Mitochondrial in vitro assay: calcium retention capacity (CRC) of isolated mouse liver mitochondria; type: biochemical; settings: ratio of calcium required to open the PTP with vs without compound, 10 μM Ca2+ pulses at 1 min intervals, compound added 1 min before, 25° C.
Text: The mitochondrial in vitro assay is based on the characteristics of mitochondrial organelles which allow the study of mitochondrial function in reductive sub-cellular in vitro systems. It is possible to investigate many mitochondrial processes in isolated mitochondrial suspension obtained from different tissues.
The ability of isolated mitochondria to uptake calcium from outside is a direct measure of mitochondrial integrity and functioning. Indeed MPT impairs the ability of mitochondria to upload calcium through specific channels that require an intact organelle structure. The assay takes advantage of this phenomenon to evaluate the ability of the invention compounds to interfere with MPT on isolated mitochondria.
Mitochondria were prepared from the livers of male 129 or C57/B6 mouse weighing 20-25 g. The animals were sacrificed by cervical dislocation. The livers were isolated and placed in ice-cold 0.25 M sucrose, 10 mM Tris-HCl, 0.1 mM ethylene-bis(oxoethylenenitrilo)tetraacetic acid (EGTA), pH 7.4 The livers were rinsed three-four times with ice-cold medium, minced with scissor and passed through a manual Potter homogenizer kept in an ice-water bath. The homogenate was diluted to 50 ml per liver, and unbroken cells and nuclei were sedimented by centrifugation at 900×g in a Beckman Avanti™ J-25 refrigerated centrifuge kept at 4° C. for 10 min. The supernatant was carefully decanted and centrifuged at 7000×g in the same centrifuge for 10 min. The supernatant was discarded and the mitochondrial pellets were carefully resuspended in ice-cold isolation medium and spun as above.
The resulting mitochondrial pellets were resuspended in a small amount of ice-cold isolation medium, and stored on ice. Mitochondria protein content was determined with the biuret assay.
The mitochondrial Ca^2+ retention capacity (CRC) is a sensitive measure of the propensity of mitochondria to open the PTP after Ca^2+ uptake. Since mitochondria are bidirectionally permeable to Ca^2+ owing to the presence of a Ca^2+ uniporter in their inner membrane, the mitochondrial membrane potential (Δψm) is responsible for the Ca^2+ accumulation in the mitochondrial matrix and consequent Ca^2+ gradient. Any drop in Δψm, such as depolarization caused by H^+ influx during PTP opening, is expected to result in a redistribution of Ca^2+ between the intra and extra-mitochondrial spaces, during which Ca^2+ uses all available routes through the mitochondrial membrane.
CRC of mitochondrial preparations was assessed fluorimetrically in the presence of the fluorescent Ca^2+ indicator Calcium Green-5N (excitation-emission: 505-535 nm) with a Perkin-Elmer LS 55 spectrofluorimeter equipped with a magnetic stirrer and thermostatic control set to 25° C. (Ichas, F.; Jouaville, L. S.; Mazat, J. P. Mitochondria are excitable organelles capable of generating and conveying electrical and calcium signal. Cell., 1997, 89, 1145-1153). Calcium Green-5N is a fluorometric probe that is not permeable to membranes and when added to a mitochondrial suspension is able to detect the presence of Ca^2+ in the extra-mitochondrial medium. Mitochondria were loaded with a train of 10 μM Ca^2+ pulses at 1 min intervals. Under these conditions mitochondria took up actively and retained Ca^2+ until a point at which mitochondria underwent a fast process of Ca^2+ release due to the opening of the PTP. The number of calcium pulses (final concentration of calcium) required to open the PTP is the mitochondrial CRC. This Ca^2+ loading protocol thus provides a convenient and sensitive assay for measuring PTP opening and it is used to assess the ability of the compounds of the invention to inhibit PTP opening. Compounds were added directly to the mitochondrial solution 1 min. prior to the start of calcium pulsing and the number of calcium pulses required to open the PTP was determined. […]

[2] = test system: experimental autoimmune encephalomyelitis (EAE); assay: Experimental autoimmune encephalomyelitis (EAE) model of multiple sclerosis; type: in vivo, mouse
Text: Experimental autoimmune encephalomyelitis (EAE) is possibly the best animal model to study demyelinating diseases of the central nervous system (CNS) such as multiple sclerosis (MS) Since the first classical studies EAE has been an invaluable tool for dissecting mechanisms of the immune response against self-antigens within the CNS, as well as to test new therapies for the treatment of autoimmune diseases. Rodents are susceptible to EAE. Depending upon species, antigens and mode of sensitisation, EAE can have a monophasic acute course or a chronic relapsing, and even a primarily progressive course that mimics human MS. Acute models of EAE allow faster experimentation and observation, whereas chronic models allow wider observation, such as preventive versus therapeutic treatments.
Seven week-old C57 black/6N female mice were immunized with an emulsion of mycobacterium tubercolosis and the peptide spanning the sequence 35aa-55aa of the myelin oligodendrocyte glycoprotein (MOG) dissolved in phosphate buffer and Freud adjuvant. Mice were injected subcutaneously, in three different sites, with a total of 0.3 ml of emulsion. Immediately after the immunization mice were injected intravenously with 0.1 ml of pertussin toxin ([…]). […]
Starting from day 10 after the immunization mice were evaluated daily for weight loss and locomotive defects. […]

[3] = test system: retinal neo-vascularisation; assay: Mouse retinopathy of prematurity (ROP) model of ischemia-induced retinal neo-vascularisation; type: in vivo; settings: ROP mice
Method: Retinal neo-vascularisation was assessed in a mouse retinopathy of prematurity (ROP) model of ischemia-induced retinal neo-vascularisation. In rodents, retinal vascularisation is generally completed by post-natal day 14 (P14). Oxygen treatment during the second week of life partially causes vaso-obliteration of immature retinal vessels around the optic disk and it blocks subsequent vascular development of the deep retinal layers. When oxygen treatment is stopped, the ischemia of the retina triggers abnormal vessel growth, i.e., retinal neovascularisation.
At postnatal day 7 (P7), newborn mice were exposed to 75% O2 for 5 days in an oxygen incubator. […] Oxygen concentration was monitored by an Oxygen Monitor (Miniox III; Catalyst Research, MD). […]
At day 12 (P12) animals were removed from the oxygen exposure chamber and injected intra-vitreously with a Hamilton syringe with compounds or vehicle solution. […] Flat-mounted retinas were photographed by fluorescence microscopy (Zeiss Axioplan Thornwood, N.Y.) and by computer-imaging (KS300, Kontron Electronik GmbH, Germany) retinal images captured. […]
Eyes from the same groups, at p17, were fixed and sections were prepared and stained with hematoxylin and eosin to quantify the amount of endothelial cells developed. […]

**Q.** With `O=C1C=C(c2ccc(F)cc2)C(=O)N1c1cccc(Cl)c1` [Example 2, 1-(3-chlorophenyl)-3-(4-fluorophenyl)-pyrrole-2,5-dione] as the compound, how does the CRC efficacy [1] read?
**A.** Its CRC efficacy is 2.5.

**Q.** Which results are given for `O=C1C=C(c2ccccc2)C(=O)N1c1cccc(Cl)c1` [Example 63, 1-(3-chlorophenyl)-3-phenyl-pyrrole-2,5-dione]?
**A.** treated mice developing inferior limb paresis after 20 days ([2]; 5 mg/kg intraperitoneally every day from day 4, approximately 30% of the untreated EAE mice developed it): no one; development of the disease (average clinical score, non parametric scale 0-5) ([2]; C57 black/6N female mice, MOG 35-55 immunization, 5 mg/kg intraperitoneally every day from day 4, FIG. 2): significantly prevented; neovascularization, fluorangiographic analysis ([3]; intravitreal injection at P12, approximately 1 or 2 or 4 microM in the vitreum, analysis at p17, vs DMSO vehicle): significant reduction; number of endothelial cells present in the eye (per section) ([3]; intravitreal injection at P12, eyes at p17, hematoxylin and eosin sections, FIG. 1): significantly reduces; CRC efficacy [1]: 2.5

**Q.** For `COc1ccc(C2=CC(=O)N(c3cccc(Cl)c3)C2=O)cc1` [Example 48, 1-(3-chlorophenyl)-3-(4-methoxyphenyl)-pyrrole-2,5-dione], which CRC efficacy [1] is on record?
**A.** The CRC efficacy was 2.11.

**Q.** Which CRC efficacy [1] does the source give for `O=C1C=C(c2cccc(F)c2)C(=O)N1c1ccc(F)c(Cl)c1` [Example 10, 1-(3-chloro-4-fluorophenyl)-3-(3-fluorophenyl)-pyrrole-2,5-dione] here?
**A.** Its CRC efficacy is 2.27.

**Q.** With `O=C1C=C(c2ccc(O)cc2)C(=O)N1c1cccc(Cl)c1` [Example 36, 1-(3-chlorophenyl)-3-(4-hydroxyphenyl)-pyrrole-2,5-dione] as the compound, how does the CRC efficacy [1] read?
**A.** The CRC efficacy was 1.87.

**Q.** How did the CRC efficacy [1] turn out when `O=C1C=C(c2cccc(F)c2)C(=O)N1c1cccc(Cl)c1` [Example 9, 1-(3-chlorophenyl)-3-(3-fluorophenyl)-pyrrole-2,5-dione] was run?
**A.** The CRC efficacy was 2.75.

**Q.** How did the CRC efficacy [1] turn out when `O=C1C=C(c2ccccc2)C(=O)N1c1cccc(Br)c1` [Example 20, 1-(3-bromophenyl)-3-phenyl-pyrrole-2,5-dione] was run?
**A.** The CRC efficacy was 2.33.

**Q.** Which CRC efficacy [1] does the source give for `O=C1C=C(c2ccccc2F)C(=O)N1c1cccc(Cl)c1` [Example 13, 1-(3-chlorophenyl)-3-(2-fluorophenyl)-pyrrole-2,5-dione] here?
**A.** Its CRC efficacy is 2.

**Q.** For `Cc1cccc(N2C(=O)C=C(c3ccccc3)C2=O)c1` [Example 22, 1-(3-methylphenyl)-3-phenyl-pyrrole-2,5-dione], which CRC efficacy [1] is on record?
**A.** Its CRC efficacy is 2.57.

**Q.** Which CRC efficacy [1] does the source give for `O=C1C=C(c2ccccc2)C(=O)N1c1ccc(F)c(Cl)c1` [Example 61, 1-(3-chloro-4-fluorophenyl)-3-phenyl-pyrrole-2,5-dione] here?
**A.** The CRC efficacy was 2.83.

**Q.** `O=C1C=C(c2ccccc2)C(=O)N1c1cccc(C(F)(F)F)c1` [Example 31, 1-(3-trifluoromethylphenyl)-3-phenyl-pyrrole-2,5-dione] was tested. Which CRC efficacy [1] did it give?
**A.** The CRC efficacy was 2.

**Q.** Which CRC efficacy [1] does the source give for `COc1ccc(Cl)cc1N1C(=O)C=C(c2ccccc2)C1=O` [Example 58, 1-(5-chloro-2-methoxyphenyl)-3-phenyl-pyrrole-2,5-dione] here?
**A.** Its CRC efficacy is 1.86.

**Q.** Which CRC efficacy [1] does the source give for `O=C1C=C(c2ccc(Cl)cc2)C(=O)N1c1cccc(Cl)c1` [Example 55, 1-(3-chlorophenyl)-3-(4-chlorophenyl)-pyrrole-2,5-dione] here?
**A.** The CRC efficacy was 2.33.

**Q.** With `Cc1ccc(C2=CC(=O)N(c3cccc(Cl)c3)C2=O)cc1` [Example 57, 1-(3-chlorophenyl)-3-(4-methylphenyl)-pyrrole-2,5-dione] as the compound, how does the CRC efficacy [1] read?
**A.** Its CRC efficacy is 2.66.

**Q.** Which CRC efficacy [1] does the source give for `Cc1cccc(N2C(=O)C=C(c3ccc(Cl)cc3)C2=O)c1` [Example 53, 1-(3-methylphenyl)-3-(4-chlorophenyl)-pyrrole-2,5-dione] here?
**A.** The CRC efficacy was 2.17.

**Q.** For `O=C1C=C(c2ccccc2F)C(=O)N1c1ccc(F)c(Cl)c1` [Example 14, 1-(3-chloro-4-fluorophenyl)-3-(2-fluorophenyl)-pyrrole-2,5-dione], which CRC efficacy [1] is on record?
**A.** Its CRC efficacy is 2.22.
